Experimental data published in patent US8546395B2, “6-cycloamino-3-(1H-pyrrolo[2,3-b]pyridin-4-yl)imidazo[1,2-b]pyridazine derivatives, preparation thereof and therapeutic use thereof” (Sanofi, priority 2008, dated 2013).
pIC50: −log10 of the molar value.

Experiments:
[1] = target: T1, human CK1 delta (Homo sapiens, UniProt P48730); assay: FRET fluorescence test (Z'Lyte kinase assay Kit), peptide substrate SER/THR 11; type: biochemical; details: peptide substrate 2 μM, ATP at 4 times the KM
T1 construct: purchased Invitrogen Corporation PV3665
Excerpt: The capacity of the compounds of the invention to inhibit the phosphorylation of casein by casein kinase 1 epsilon and delta may be evaluated using a FRET (“Fluorescence Resonance Energy Transfer) fluorescence test with the aid of the “Z'Lyte™ kinase assay Kit” (reference PV3670; Invitrogen Corporation™) according to the manufacturer's instructions.
The casein kinases 1 used are obtained from Invitrogen Corporation (human CK1 epsilon PV3500 and human CK1 delta PV3665).
A peptide substrate, labelled at both ends with a fluorophor donor group (coumarin) and a fluorophor acceptor group (fluorescein) constituting a FRET system is phosphorylated in the presence of ATP by casein kinase 1 epsilon or delta in the presence of increasing concentrations of compounds of the invention.
The mixture is treated with a site-specific protease that specifically cleaves the peptide substrate to form two fluorescent fragments having a large fluorescence emission ratio.
The fluorescence observed is thus related to the capacity of the products of the invention to inhibit the phosphorylation of the peptide substrate by casein kinase 1 epsilon or casein kinase 1 delta.
The compounds of the invention are dissolved at different concentrations starting with a 10 mM stock solution in DMSO diluted in a buffer containing 50 mM HEPS, pH 7.5, 1 m MEGTA, 0.01% Brij-35, 10 mM MgCl2 for casein kinase 1 epsilon and supplemented with Trizma Base (50 mM), pH 8.0, and NaN3 (0.01% final) for casein kinase 1 delta.
The phosphorylation of the peptide substrate SER/THR 11 obtained from Invitrogen Corporation™ is performed at a final concentration of 2 μM. The ATP concentration is 4 times the KM, this value being 2 μM for casein kinase 1 epsilon and 4 μM for casein kinase 1 delta.
The emitted fluorescence is measured at wavelengths of 445 and 520 nm (excitation at 400 nm).

[2] = target: T2, casein kinase 1 epsilon (CK1 epsilon) (Homo sapiens, UniProt P49674); assay: Filter-plate assay of ATP-33P for CK1 epsilon inhibitors (phosphorylation of casein); type: biochemical; details: casein substrate, ATP-33P with 10 μM cold ATP, 2 hours at ambient temperature
T2 construct: Invitrogen Corporation (as an alternative)
Method: The capacity of the compounds of the invention to inhibit the phosphorylation of casein by casein kinase 1 epsilon and delta may be evaluated according to the procedure described in US 2005/0131012.
Filter-Plate Assay of ATP-^33P for the Screening of CK1 Epsilon Inhibitors:
The effect of the compounds on inhibition of the phosphorylation of casein by the enzyme casein kinase 1 epsilon (CK1 epsilon) is measured, using a casein assay with filtration of ATP-^33P in vitro.
Casein kinase 1 epsilon (0.58 mg/ml) is obtained via fermentation and purification processes performed according to methods that are well known to those skilled in the art, or may also be obtained from Invitrogen Corporation™ (human CK1 epsilon).
The compounds are tested at five different concentrations so as to generate IC50 values, i.e. the concentration at which a compound is capable of inhibiting the enzymatic activity by 50%, or alternatively the percentage of inhibition at a concentration of 10 micromolar.
“U”-bottomed Falcon plates are prepared by placing 5 μL of solutions of the compounds according to the invention at concentrations of 10, 1, 0.1, 0.01 or 0.001 μM in various wells. The solutions of the compounds according to the invention at these various concentrations are prepared by diluting in a test buffer (50 mM Tris, pH 7.5, […], 2 mM DTT and 1 mM EGTA) a stock solution in DMSO at a concentration of 10 mM. Next, 5 μL of dephosphorylated casein are added to a final concentration of 0.2 μg/μL, 20 μl of CK1 epsilon to a final concentration of 3 ng/μl, and 20 μl of ATP-^33P to a final concentration of 0.02 μCi/μl mixed with cold ATP (10 μM final—approximately 2×10^6 CPM per well). The final total test volume per well is equal to 50 μl.
The “U”-bottomed Falcon® test plate mentioned above is vortexed, and then incubated at ambient temperature for 2 hours. After 2 hours, the reaction is stopped by adding an ice-cold solution of 65 μl of ATP (2 mM) prepared in test buffer.
100 μl of the reaction mixture are then transferred from the “U”-bottomed Falcon® plate into Millipore® MAPH filter plates, preimpregnated with 25 μl of ice-cold 100% TCA. […]
The plates are left to dry overnight at ambient temperature. […] The radiation emitted by each well is then measured for 2 minutes in a Packard® Topcount NXT scintillation counter, in which the values of CPM/well are measured.
The percentage inhibition of the capacity of the enzyme to phosphorylate the substrate (casein) is determined for each concentration of compound tested. These inhibition data expressed as percentages are used to calculate the IC50 value for each compound compared with the controls.
The kinetic studies determined the KM value for ATP as being 21 μM in this test system.

[3] = system: Mper1-luc Rat-1 (P2C4) fibroblasts; assay: Circadian cell assay (mPer1-luciferase reporter, period prolongation); type: cell-based; details: effective concentration that induced a 1-hour prolongation of the circadian period, interpolated from hyperbolic curve
Method: Experimental Protocols for Circadian Cell Assay
Mper1-luc Rat-1 (P2C4) fibroblast cultures were prepared by dividing the cultures every 3-4 days (approximately 10-20% of confluence) on 150 cm^2 degassed polystyrene tissue culture flasks (Falcon® #35-5001) and maintained in growth medium [EMEM (Celigro #10-010-CV); 10% foetal bovine serum (FBS; Gibco #16000-044); and 50 I.U./ml of penicillin-streptomycin (Celigro #30-001-CI)] at 37° C. and under 5% CO2.
Cells obtained from Rat-1 fibroblast cultures at 30-50% of confluence as described above were co-transfected with vectors containing the selection marker for resistance to zeocin for a stable transfection and a luciferase reporter gene controlled by the mPer-1 promoter. After 24 to 48 hours, the cultures were divided on 96-well plates and maintained in growth medium supplemented with 50-100 μg/ml of zeocin (Invitrogen® #45-0430) for 10-14 days. The zeocin-resistant stable transfectants were evaluated for the expression of the reporter by adding 100 μM luciferin (Promega® #E1603®) to the growth medium and by assaying the luciferase activity on a TopCount scintillation counter (Packard Model #C384V00). The Rat-1 cell clones expressing both zeocin resistance and lucerifase activity controlled by mPer1 were serum-shock synchronized with 50% horse serum [HS (Gibco® #16050-122)] and the activity of the circadian reporter was evaluated. The P2C4 clone of Mper1-luc Rat-1 fibroblasts was selected to test the compound. Mper1-luc Rat-1 ([…]) fibroblasts at 40-50% of confluence, obtained according to the protocol described above, were plated out onto 96-well opaque tissue culture plates (Perkin Elmer® #6005680). […]
The period analysis was performed either by determining the interval between the relative light emission minima over several days or by Fourier transform. […] The data were analysed by adjusting a hyperbolic curve to the data expressed as change of period (y-axis) as a function of the concentration of the test compound (x-axis) in the XLfit™ software and the CE Delta (t+1 h) was interpolated from this curve.

T1 sequence (P48730 whole entry): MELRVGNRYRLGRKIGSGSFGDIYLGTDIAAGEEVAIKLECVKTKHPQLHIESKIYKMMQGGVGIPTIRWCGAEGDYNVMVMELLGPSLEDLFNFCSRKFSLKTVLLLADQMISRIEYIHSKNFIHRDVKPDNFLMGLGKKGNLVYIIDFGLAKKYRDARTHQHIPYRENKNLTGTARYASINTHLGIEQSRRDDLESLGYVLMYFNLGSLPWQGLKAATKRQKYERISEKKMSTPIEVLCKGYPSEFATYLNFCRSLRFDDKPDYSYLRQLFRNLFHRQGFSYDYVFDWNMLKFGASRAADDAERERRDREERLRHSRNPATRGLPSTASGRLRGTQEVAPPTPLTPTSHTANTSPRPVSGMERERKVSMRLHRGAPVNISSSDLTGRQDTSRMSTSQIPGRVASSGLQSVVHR
T2 sequence (P49674 whole entry): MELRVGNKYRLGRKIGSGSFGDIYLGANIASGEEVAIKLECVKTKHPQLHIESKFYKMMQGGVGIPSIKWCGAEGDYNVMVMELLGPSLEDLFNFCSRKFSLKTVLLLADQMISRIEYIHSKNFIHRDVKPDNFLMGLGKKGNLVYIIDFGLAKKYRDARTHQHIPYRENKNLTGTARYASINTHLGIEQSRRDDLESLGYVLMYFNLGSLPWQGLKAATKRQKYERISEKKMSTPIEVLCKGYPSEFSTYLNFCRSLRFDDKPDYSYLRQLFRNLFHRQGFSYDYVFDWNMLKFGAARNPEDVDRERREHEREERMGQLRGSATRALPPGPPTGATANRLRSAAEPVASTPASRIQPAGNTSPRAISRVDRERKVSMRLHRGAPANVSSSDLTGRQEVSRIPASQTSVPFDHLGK

| pIC50 [1] | pIC50 [2] | melting point [°C] | Structure (SMILES) | CE Delta (t + 1 h) [3] [nM] |
| --- | --- | --- | --- | --- |
| 8.30 | – | – | Cc1cc(N2C[C@H]3CN(C)C[C@H]3C2)nn2c(-c3ccnc4[nH]ccc34)c(-c3ccc(F)cc3)nc12 [Compound 29, (Cis)-2-(4-fluorophenyl)-8-methyl-6-(5-methyl-hexahydropyrrolo[3,4-c]pyrrol-2(1H)-yl)-3-(1H-pyrrolo[2,3-b]pyridin-4-yl)imidazo[1,2-b]pyridazine] | – |
| – | 8.22 | – | Fc1ccc(-c2nc3ccc(N4CCC5(CCCNC5)CC4)nn3c2-c2ccnc3[nH]ccc23)cc1 [Compound 35, 9-[2-(4-Fluorophenyl)-3-(1H-pyrrolo[2,3-b]pyridin-4-yl)imidazo[1,2-b]pyridazin-6-yl]-2,9-diazaspiro[5.5]undecane] | 305 |
| – | 8.70 to 9.00 | 285 to 287 | C[C@@H]1CN(c2ccc3nc(-c4ccc(F)cc4)c(-c4ccnc5[nH]ccc45)n3n2)CCN1 [Compound 6, 2-(4-Fluorophenyl)-6-[(3R)-3-methylpiperazin-1-yl]-3-(1H-pyrrolo[2,3-b]pyridin-4-yl)imidazo[1,2-b]pyridazine] | 2 to 3 |
| 7.38 to 7.52 | – | 273 to 276 | CC(C)(O)CN1CCN(c2ccc3nc(-c4ccc(F)cc4)c(-c4ccnc5[nH]ccc45)n3n2)CC1 [Compound 20, 1-{4-[2-(4-Fluorophenyl)-3-(1H-pyrrolo[2,3-b]pyridin-4-yl)imidazo[1,2-b]pyridazin-6-yl]piperazin-1-yl}-2-methylpropan-2-ol] | – |
